Results published in patent US5532229A, “Topical administration of vitamin D to mammals” (priority 1994, dated 1996).

Experiments:
[1] = Experiment 1: serum radioactivity after one administration of radiolabelled vitamin D3 (intracardiac, gastric, dermal); assay type: in vivo, Wistar rats
Excerpt: Each point is the mean of 3-6 rats;
A comparison of serum radioactivity after one administration of radiolabelled vitamin D3 via the skin or gut, compared to intravascular injection.
The protocols and procedures used in this work were approved beforehand by an animal-care committee at the University of Toronto. Wistar rats, 250-g weight and fed normal diet, were divided into three groups of six, and each rat was given 400,000 cpm of […] (57 mCi/mmol, Amersham, UK). One group was given the [^14 C]-vitamin D3 by intracardiac injection; one group was given the tracer through an infant-feeding tube, directly into the stomach; and one group received the dose by application in 50 μL ethanol to a 2×2 cm patch of shaved skin on the lower back. Blood was taken by bleeding 0.25 mL from the tail, from three rats at a time, for each time indicated in the graph, except for the final sample at 3 wk, which is from all rats at the time of killing with an anesthetic overdose. The serum was counted in a Beckman LS6800 beta-counter and results are corrected for background, sample volume, and rat weight.

[2] = Experiment 3: serum 25(OH)D3 after 6 weeks of vitamin D3 nutrition; assay type: in vivo, Male Wistar rats
Description: Male, Wistar rats were obtained at 120-130 g, and placed on a 0.01% calcium, 0.7% phosphate diet that was vitamin D deficient (Teklad Test Diets, Madison, WI) this was for one week to help deplete vitamin D stores. For the next three weeks the rats were fed the vitamin D-deficient diet, but with normal, 0.5%, calcium. Starting with these 3 weeks, the rats were divided into four vitamin D3 -treatment groups, initially, nine rats per group: group a) supplemented once weekly with 0.6 μg vitamin D3 (average dose, 0.08 μg/day); group b) supplemented once every second day with vitamin D3 to provide 2 nmol/day, i.e., each dose was 4 nmol of vitamin D3; group c) supplemented once every second day with vitamin D3 to provide 8 μg/day. The preceding groups all received the vitamin D3 through an infant-feeding tube inserted through the mouth into the stomach. One group, d), received its vitamin D3 in the ethanol applied onto a shaved 2 cm×2 cm patch of skin on the back, this was done every second day to provide vitamin D3 at 8 μg/day. The volume of each dose of vitamin D3 given was adjusted so that the stated doses are per 250 g body weight. […]
Biochemical measurements. 1,25(OH)2 D3 in serum was measured by calf-thymus receptor-binding assay after initial purification of 1,25(OH)2 D3 with C18-OH cartridges (5). For the serum volumes that were minimal, serum was measured out in 50 μL increments, and the final result was adjusted for the volume of sample analyzed. […] The material eluting as 1,25(OH)2 D3 was evaporated and redissolved in acetonitrile: water for further purification with C18-OH cartridges and quantitation by thymus receptor assay, as described for serum. Renal 24-hydroxylase was measured by incubating mitochondria with [^3 H]-25(OH)D3 as substrate (Vieth and Fraser, J Biol Chem. 254:12455-12460;1979). […]

[3] = tested on: 1α-hydroxylase; assay: Experiment 3: 1-hydroxylase in renal mitochondria; assay type: in vivo, rat; conditions: for Renal mitochondria 1a-hydroxylase: 6 weeks
Description: Male, Wistar rats were obtained at 120-130 g, and placed on a 0.01% calcium, 0.7% phosphate diet that was vitamin D deficient (Teklad Test Diets, Madison, WI) this was for one week to help deplete vitamin D stores. For the next three weeks the rats were fed the vitamin D-deficient diet, but with normal, 0.5%, calcium. Starting with these 3 weeks, the rats were divided into four vitamin D3 -treatment groups, initially, nine rats per group: group a) supplemented once weekly with 0.6 μg vitamin D3 (average dose, 0.08 μg/day); group b) supplemented once every second day with vitamin D3 to provide 2 nmol/day, i.e., each dose was 4 nmol of vitamin D3; group c) supplemented once every second day with vitamin D3 to provide 8 μg/day. The preceding groups all received the vitamin D3 through an infant-feeding tube inserted through the mouth into the stomach. One group, d), received its vitamin D3 in the ethanol applied onto a shaved 2 cm×2 cm patch of skin on the back, this was done every second day to provide vitamin D3 at 8 μg/day. The volume of each dose of vitamin D3 given was adjusted so that the stated doses are per 250 g body weight. Over a second 3-week period while maintaining the described vitamin D3 dosing regimens, diet calcium content was changed weekly and blood sampling was started (that is, changes in calcium and sampling was from weeks 4 to 6, inclusive, of receiving the appropriate vitamin D3 supplement). Diet calcium was first dropped to 0.01% then raised to 1.5% and finally dropped again to 0.01%. For each week of dietary calcium manipulation, blood was obtained at day zero (the day of but just prior to the change in calcium), and days 1, 3, and 7 after the change. During the first week, 0.5 mL of blood was taken on the first two of these days and anticoagulated with heparin, the cells were isolated and resuspended in normal rat plasma and reinjected into the femoral vein. […] For the subsequent samplings, only 0.2-0.3 mL of blood was taken by bleeding from the tail into precalibrated microcentrifuge tubes. In this way, the bleeds prior to sacrifice removed a net total of less than 2 mL of blood, that is, less than or equal to 10% of the blood volume. Samples of daytime urine was collected into microfuge tubes that were fastened to the cones of metabolic collection funnels designed to hang under the wire cages. The cages and cones were rinsed with 0.1 mol/L hydrochloric acid prior to each collection. To eliminate contamination of the urine with diet, stool or water, the rats were placed into these separate cages only during the urine-collection period, until about 1 mL urine was present in the microfuge tube, this was typically within 5 min to one hour.
Biochemical measurements. 1,25(OH)2 D3 in serum was measured by calf-thymus receptor-binding assay after initial purification of 1,25(OH)2 D3 with C18-OH cartridges (5). For the serum volumes that were minimal, serum was measured out in 50 μL increments, and the final result was adjusted for the volume of sample analyzed. To measure 1α-hydroxylase in renal mitochondria, the incubation was as described previously, except the substrate was 20 μmol/L nonradioactive 25(OH)D3. The assay was stopped by addition of 2.5 mL methanol. To monitor recovery of 1,25 (OH)2 D3, 2000 cpm of [^3 H]--1,25(OH)2 D3 were added in 50 μL ethanol prior to further extraction with two additions of 1.25 mL methylene chloride. The methylene chloride layer was taken and evaporated to dryness, redissolved in hexane, isopropanol, methanol (90:9: 1) for purification by HPLC, Zorbax-Sil column. The material eluting as 1,25(OH)2 D3 was evaporated and redissolved in acetonitrile: water for further purification with C18-OH cartridges and quantitation by thymus receptor assay, as described for serum. Renal 24-hydroxylase was measured by incubating mitochondria with [^3 H]-25(OH)D3 as substrate (Vieth and Fraser, J Biol Chem. 254:12455-12460;1979). […]

[4] = 50 μg in 10 μL 95% ethanol, shaved skin of rats; cited from earlier work
[5] = 14 days; cited from earlier work

Compound: C=C1CC[C@H](O)C/C1=C/C=C1\CCC[C@]2(C)[C@@H]([C@H](C)CCCC(C)C)CC[C@@H]12 [vitamin D3]
- difference in serum radioactivity between dermal and oral groups ([1]; 3 wk): not statistically significant
- vitamin D3 delivered into the blood compared to direct injection ([1]; dermal and gastric): less than half
- rate of uptake into the circulation from the skin vs gut ([1]; one tracer dose, rats): more slowly than from the gut
- radioactivity in kidney, liver, and adipose tissues ([1]; radioactive vitamin D3): paralleled to the serum levels
- effectiveness of dermal vs oral route in raising 25(OH)D3 ([2]; 20 nmol/250 g/day): 85%
- serum 25(OH)D3 ([2]; dermal 8 μg/day): 127 ± 4 nmol/L
- serum 25(OH)D3 ([2]; gastric 8 μg/day): 148 ± 10 nmol/L
- difference between the two routes in activities of renal enzymes (1-hydroxylase) ([3]; 20 nmol/250 g/day): no significant difference between the two routes
- Renal mitochondria 1a-hydroxylase ([3]; 0.08 μg/day diet): 1052 fmol/mg/mi
- Renal mitochondria 1a-hydroxylase ([3]; 0.8 μg/day G1 (gastric)): 993 fmol/mg/mi
- Renal mitochondria 1a-hydroxylase ([3]; 8 μg/day G1 (gastric)): 539 fmol/mg/mi
- Renal mitochondria 1a-hydroxylase ([3]; 8 μg/day dermal): 630 fmol/mg/mi
- 1-hydroxylase in kidney ([3]; 8 μg/day, gastric and dermal, vs groups with less vitamin D3): suppressed 1-hydroxylase in kidney
- response (intestinal calcium transport and serum calcium) [4]: no response was detected
- fatal oral dose [5]: 2600 µg/day
